Data reported in patent publication US8574563B2 (Bristol-Myers Squibb Company, priority 2006, dated 2013).
pEC50: −log10 of the molar value. Read-outs that look alike come from different tables or passages of the source.

Test system: HCV 1b-377-neo replicon cells
Experiment: HCV replicon assay, HCV 1b-377-neo replicon cells (1b FRET)
Format: cell-based, Hepatitis C virus genotype 1b
Conditions: HCV 1b-377-neo replicon cells, HCV 1b genotype, read-out: EC50 range against HCV 1b (Table 2, Range)
In short: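 Compounds were tested in genotype 1b subgenomic replicon cells carrying a neomycin marker, alongside a matched replicon line with an NS5A Y2065H substitution that confers resistance to a reference NS5A inhibitor.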

COC(=O)N[C@@H](C(=O)N1CCC[C@H]1c1ncc(-c2ccc(-c3ccc(-c4cnc([C@@H]5CCCN5C(=O)C(=O)N(C)C)[nH]4)cc3)cc2)[nH]1)c1ccccc1 [Example 73, methyl ((1R)-2-((2S)-2-(5-(4′-(2-((2S)-1-((dimethylamino)(oxo)acetyl)-2-pyrrolidinyl)-1H-imidazol-5-yl)-4-biphenylyl)-1H-imidazol-2-yl)-1-pyrrolidinyl)-2-oxo-1-phenylethyl)carbamate]
pEC50 (Hepatitis C virus): 9.00 to 12.00

COC(=O)N[C@@H](C(=O)N1CCC[C@H]1c1ncc(-c2ccc(-c3ccc(-c4cnc([C@@H]5CCCN5C(=O)C5CCOC5)[nH]4)cc3)cc2)[nH]1)c1ccccc1 (stereo partly drawn) [Example 74, methyl ((1R)-2-oxo-1-phenyl-2-((2S)-2-(5-(4′-(2-((2S)-1-(tetrahydro-3-furanylcarbonyl)-2-pyrrolidinyl)-1H-imidazol-5-yl)-4-biphenylyl)-1H-imidazol-2-yl)-1-pyrrolidinyl)ethyl)carbamate]
pEC50 (Hepatitis C virus): 9.00 to 12.00

COC(=O)N[C@@H](C)C(=O)N1CCC[C@H]1c1ncc(-c2ccc(-c3ccc(-c4cnc([C@@H]5CCCN5C(=O)[C@H](NC(=O)OC)c5ccccc5)[nH]4)cc3)cc2)[nH]1 [Example 75, methyl ((1R)-2-((2S)-2-(5-(4′-(2-((2S)-1-(N-(methoxycarbonyl)-L-alanyl)-2-pyrrolidinyl)-1H-imidazol-5-yl)-4-biphenylyl)-1H-imidazol-2-yl)-1-pyrrolidinyl)-2-oxo-1-phenylethyl)carbamate]
pEC50 (Hepatitis C virus): 9.00 to 12.00

COC(=O)N[C@@H](C(=O)N1CCC[C@H]1c1ncc(-c2ccc(-c3ccc(-c4cnc([C@@H]5CCCN5C(=O)[C@H](C)N(C)C)[nH]4)cc3)cc2)[nH]1)c1ccccc1 [Example 76, methyl ((1R)-2-((2S)-2-(5-(4′-(2-((2S)-1-(N,N-dimethyl-L-alanyl)-2-pyrrolidinyl)-1H-imidazol-5-yl)-4-biphenylyl)-1H-imidazol-2-yl)-1-pyrrolidinyl)-2-oxo-1-phenylethyl)carbamate]
pEC50 (Hepatitis C virus): 9.00 to 12.00

COC(=O)N[C@@H](C(=O)N1CCC[C@H]1c1ncc(-c2ccc(-c3ccc(-c4cnc([C@@H]5CCCN5C(=O)OC)[nH]4)cc3)cc2)[nH]1)c1ccccc1 [Example 77, methyl (2S)-2-(5-(4′-(2-((2S)-1-((2R)-2-((methoxycarbonyl)amino)-2-phenylacetyl)-2-pyrrolidinyl)-1H-imidazol-5-yl)-4-biphenylyl)-1H-imidazol-2-yl)-1-pyrrolidinecarboxylate]
pEC50 (Hepatitis C virus): 9.00 to 12.00

COC(=O)N[C@@H](C(=O)N1CCC[C@H]1c1ncc(-c2ccc(-c3ccc(-c4cnc([C@@H]5CCCN5C(=O)N5CCOCC5)[nH]4)cc3)cc2)[nH]1)c1ccccc1 [Example 78, methyl ((1R)-2-((2S)-2-(5-(4′-(2-((2S)-1-(4-morpholinylcarbonyl)-2-pyrrolidinyl)-1H-imidazol-5-yl)-4-biphenylyl)-1H-imidazol-2-yl)-1-pyrrolidinyl)-2-oxo-1-phenylethyl)carbamate]
pEC50 (Hepatitis C virus): 9.00 to 12.00

COC(=O)N[C@@H](C(=O)N1CCC[C@H]1c1ncc(-c2ccc(-c3ccc(-c4cnc([C@@H]5CCCN5C(=O)[C@@H]5C[C@H](F)CN5)[nH]4)cc3)cc2)[nH]1)c1ccccc1 [Example 79, methyl ((1R)-2-((2)S-2-(5-(4′-(2-((2S)-1-((4S)-4-fluoro-L-prolyl)-2-pyrrolidinyl)-1H-imidazol-5-yl)-4-biphenylyl)-1H-imidazol-2-yl)-1-pyrrolidinyl)-2-oxo-1-phenylethyl)carbamate]
pEC50: 9.00 to 12.00

COC(=O)N[C@@H](C(=O)N1CCC[C@H]1c1ncc(-c2ccc(-c3ccc(-c4cnc([C@@H]5CCCN5C(=O)[C@@H]5CCCN5)[nH]4)cc3)cc2)[nH]1)c1ccccc1 [Example 80, methyl ((1R)-2-oxo-1-phenyl-2-((2S)-2-(5-(4′-(2-((2S)-1-L-prolyl-2-pyrrolidinyl)-1H-imidazol-5-yl)-4-biphenylyl)-1H-imidazol-2-yl)-1-pyrrolidinyl)ethyl)carbamate]
pEC50 (Hepatitis C virus): 9.00 to 12.00

COC(=O)N[C@@H](C(=O)N1CCC[C@H]1c1ncc(-c2ccc(-c3ccc(-c4cnc([C@@H]5CCCN5C(=O)[C@@H]5CC(F)(F)CN5)[nH]4)cc3)cc2)[nH]1)c1ccccc1 [Example 81, methyl ((1R)-2-((2S)-2-(5-(4′(2-((2S)-1-(4,4-difluoro-L-prolyl)-2-pyrrolidinyl)-1H-imidazol-5-yl)-4-biphenylyl)-1H-imidazol-2-yl)-1-pyrrolidinyl)-2-oxo-1-phenylethyl)carbamate]
pEC50 (Hepatitis C virus): 9.00 to 12.00

COC(=O)N[C@@H](C(=O)N1CCC[C@H]1c1ncc(-c2ccc(-c3ccc(-c4cnc([C@@H]5CCCN5C(=O)[C@@H]5C[C@@H](F)CN5)[nH]4)cc3)cc2)[nH]1)c1ccccc1 [Example 82, methyl ((1R)-2-((2S)-2-(5-(4′-(2-((2S)-1-((4R)-4-fluoro-L-prolyl)-2-pyrrolidinyl)-1H-imidazol-5-yl)-4-biphenylyl)-1H-imidazol-2-yl)-1-pyrrolidinyl)-2-oxo-1-phenylethyl)carbamate]
pEC50 (Hepatitis C virus): 9.00 to 12.00

COC(=O)N[C@@H](C(=O)N1CCC[C@H]1c1ncc(-c2ccc(-c3ccc(-c4cnc([C@@H]5CCCN5C(=O)[C@@H]5C[C@@H]6C[C@@H]6N5)[nH]4)cc3)cc2)[nH]1)c1ccccc1 [Example 83, methyl ((1R)-2-((2)S-2-(5-(4′ (2-((2S)-1-((1S,3S,5S)-2-azabicyclo[3.1.0]hex-3-ylcarbonyl)-2-pyrrolidinyl)-1H-imidazol-5-yl)-4-biphenylyl)-1H-imidazol-2-yl)-1-pyrrolidinyl)-2-oxo-1-phenylethyl)carbamate]
pEC50: 9.00 to 12.00

COC(=O)N[C@@H](C(=O)N1CCC[C@H]1c1ncc(-c2ccc(-c3ccc(-c4cnc([C@@H]5CCCN5C(=O)[C@H](C)N)[nH]4)cc3)cc2)[nH]1)c1ccccc1 [Example 84, methyl ((1R)-2-((2S)-2-(5-(4′-(2-((2S)-1-L-alanyl-2-pyrrolidinyl)-1H-imidazol-5-yl)-4-biphenylyl)-1H-imidazol-2-yl)-1-pyrrolidinyl)-2-oxo-1-phenylethyl)carbamate]
pEC50 (Hepatitis C virus): 9.00 to 12.00

COC(=O)N[C@@H](C(=O)N1CCC[C@H]1c1ncc(-c2ccc(-c3ccc(-c4cnc([C@@H]5CCCN5C(=O)[C@@H](c5ccccc5)N5CCCCC5)[nH]4)cc3)cc2)[nH]1)c1ccccc1 [Example 84-1, methyl ((1R)-2-oxo-1-phenyl-2-((2S)-2-(5-(4′-(2-((2S)-1-((2R)-2-phenyl-2-(1-piperidinyl)acetyl)-2-pyrrolidinyl)-1H-imidazol-5-yl)-4-biphenylyl)-1H-imidazol-2-yl)-1-pyrrolidinyl)ethyl)carbamate]
pEC50 (Hepatitis C virus): 9.00 to 12.00

COC(=O)N[C@@H](C(=O)N1CCC[C@H]1c1ncc(-c2ccc(-c3ccc(-c4cnc([C@@H]5CCCN5C(=O)[C@@](C)(O)c5ccccc5F)[nH]4)cc3)cc2)[nH]1)c1ccccc1 [Example 84-2, methyl ((1R)-2-((2S)-2-(5-(4′-(2-((2S)-1-((2S)-2-(2-fluorophenyl)-2-hydroxypropanoyl)-2-pyrrolidinyl)-1H-imidazol-5-yl)-4-biphenylyl)-1H-imidazol-2-yl)-1-pyrrolidinyl)-2-oxo-1-phenylethyl)carbamate]
pEC50 (Hepatitis C virus): 9.00 to 12.00

COC(=O)N[C@@H](C(=O)N1CCC[C@H]1c1ncc(-c2ccc(-c3ccc(-c4cnc([C@@H]5CCCN5C(=O)[C@H]5CCC(=O)N5)[nH]4)cc3)cc2)[nH]1)c1ccccc1 [Example 84-3]
pEC50: 9.00 to 12.00
